From PubChem BioAssay (NCI)
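Compound exposure: 48 hours, 5 concentrations, 96-well plates. TGI: concentration producing complete growth inhibition.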

How the values were obtained:
Test in all cases: inhibition of tumour cell growth, NCI panel, 48 h
A549 NSCLC = tested on: A549 NSCLC
HOP-92 NSCLC = tested on: HOP-92 NSCLC
786-0 renal = tested on: 786-0 renal
NCI-H226 lung = tested on: NCI-H226 lung
ACHN renal = tested on: ACHN renal
HT29 colon = tested on: HT29 colon
COLO 205 colon = tested on: COLO 205 colon
HCT-116 colon = tested on: HCT-116 colon
SK-MEL-2 melanoma = tested on: SK-MEL-2 melanoma
SF-539 CNS = tested on: SF-539 CNS
SK-MEL-28 melanoma = tested on: SK-MEL-28 melanoma
NCI/ADR-RES ovarian = tested on: NCI/ADR-RES ovarian
LOX IMVI melanoma = tested on: LOX IMVI melanoma
SF-295 CNS = tested on: SF-295 CNS
SK-OV-3 ovarian = tested on: SK-OV-3 ovarian
SNB-75 CNS = tested on: SNB-75 CNS
HCC-2998 colon = tested on: HCC-2998 colon
RPMI-8226 leukemia = tested on: RPMI-8226 leukemia
HOP-62 NSCLC = tested on: HOP-62 NSCLC
A498 renal = tested on: A498 renal
RXF 393 renal = tested on: RXF 393 renal
NCI-H460 lung = tested on: NCI-H460 lung
NCI-H522 lung = tested on: NCI-H522 lung
OVCAR-4 ovarian = tested on: OVCAR-4 ovarian
KM12 colon = tested on: KM12 colon
OVCAR-3 ovarian = tested on: OVCAR-3 ovarian
OVCAR-5 ovarian = tested on: OVCAR-5 ovarian
SN12C renal = tested on: SN12C renal
HS 578T breast = tested on: HS 578T breast
MALME-3M melanoma = tested on: MALME-3M melanoma
K-562 leukemia = tested on: K-562 leukemia
MOLT-4 leukemia = tested on: MOLT-4 leukemia
OVCAR-8 ovarian = tested on: OVCAR-8 ovarian
CAKI-1 renal = tested on: CAKI-1 renal
EKVX NSCLC = tested on: EKVX NSCLC
MDA-MB-435 = tested on: MDA-MB-435
BT-549 breast = tested on: BT-549 breast
PC-3 prostate = tested on: PC-3 prostate
MCF7 breast = tested on: MCF7 breast
NCI-H23 lung = tested on: NCI-H23 lung
U251 CNS = tested on: U251 CNS
SF-268 CNS = tested on: SF-268 CNS
UACC-62 melanoma = tested on: UACC-62 melanoma
TK-10 renal = tested on: TK-10 renal
CCRF-CEM leukemia = tested on: CCRF-CEM leukemia
HCT-15 colon = tested on: HCT-15 colon
UACC-257 melanoma = tested on: UACC-257 melanoma
UO-31 renal = tested on: UO-31 renal
SK-MEL-5 melanoma = tested on: SK-MEL-5 melanoma
T-47D breast = tested on: T-47D breast
MDA-N = tested on: MDA-N
SW-620 colon = tested on: SW-620 colon
DU-145 prostate = tested on: DU-145 prostate
M14 melanoma = tested on: M14 melanoma
MDA-MB-231 breast = tested on: MDA-MB-231 breast
SNB-19 CNS = tested on: SNB-19 CNS

## Clc1ccc(Nc2nn3c(CCCCCCCCc4nnc5sc(Nc6ccc(Cl)cc6)nn45)nnc3s2)cc1
A549 NSCLC
  TGI: > 100 µM
HOP-92 NSCLC
  TGI: > 100 µM
786-0 renal
  TGI: > 100 µM
NCI-H226 lung
  TGI: > 100 µM
ACHN renal
  TGI: > 100 µM
HT29 colon
  TGI: > 100 µM
COLO 205 colon
  TGI: > 100 µM
HCT-116 colon
  TGI: > 100 µM
SK-MEL-2 melanoma
  TGI: > 100 µM
SF-539 CNS
  TGI: > 100 µM
SK-MEL-28 melanoma
  TGI: > 100 µM
NCI/ADR-RES ovarian
  TGI: > 100 µM
LOX IMVI melanoma
  TGI: > 100 µM
SF-295 CNS
  TGI: > 100 µM
SK-OV-3 ovarian
  TGI: > 100 µM
SNB-75 CNS
  TGI: 62.6 µM
HCC-2998 colon
  TGI: > 100 µM
RPMI-8226 leukemia
  TGI: > 100 µM
HOP-62 NSCLC
  TGI: > 100 µM
A498 renal
  TGI: > 100 µM
RXF 393 renal
  TGI: > 100 µM
NCI-H460 lung
  TGI: > 100 µM
NCI-H522 lung
  TGI: > 100 µM
OVCAR-4 ovarian
  TGI: > 100 µM
KM12 colon
  TGI: > 100 µM
OVCAR-3 ovarian
  TGI: > 100 µM
OVCAR-5 ovarian
  TGI: > 100 µM
SN12C renal
  TGI: > 100 µM
HS 578T breast
  TGI: > 100 µM
MALME-3M melanoma
  TGI: > 100 µM
K-562 leukemia
  TGI: > 100 µM
MOLT-4 leukemia
  TGI: > 100 µM
OVCAR-8 ovarian
  TGI: > 100 µM
CAKI-1 renal
  TGI: > 100 µM
EKVX NSCLC
  TGI: > 100 µM
MDA-MB-435
  TGI: > 100 µM
BT-549 breast
  TGI: > 100 µM
PC-3 prostate
  TGI: > 100 µM
MCF7 breast
  TGI: > 100 µM
NCI-H23 lung
  TGI: > 100 µM
U251 CNS
  TGI: > 100 µM
SF-268 CNS
  TGI: > 100 µM
UACC-62 melanoma
  TGI: > 100 µM
TK-10 renal
  TGI: 96.8 µM
CCRF-CEM leukemia
  TGI: > 100 µM
HCT-15 colon
  TGI: > 100 µM
UACC-257 melanoma
  TGI: > 100 µM
UO-31 renal
  TGI: > 100 µM
SK-MEL-5 melanoma
  TGI: > 100 µM
T-47D breast
  TGI: > 100 µM
MDA-N
  TGI: > 100 µM
SW-620 colon
  TGI: > 100 µM
DU-145 prostate
  TGI: > 100 µM
M14 melanoma
  TGI: > 100 µM
MDA-MB-231 breast
  TGI: > 100 µM
SNB-19 CNS
  TGI: 80.4 µM
